Measured values reported in the supplement of paper PMC11061612.

How the values were obtained:
[1] = tested on: RVH-421 (Melanoma); experiment: Bliss excess, mean over the matrix (fraction); higher = more synergy
Summary of the method: (§1)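 After 24 hours at 37°C and 5% CO2 in 1536-well plates, cells in DMEM/F12 or RPMI plus 10% FBS received two-drug dose matrices for 72 hours. Viability came from CellTiter-Glo 2.0 luminescence and was scaled as inhibition, anchored at 0 by vehicle wells and at 1 by blank wells. Combination Emax is taken as the second-highest inhibition in the matrix, and Bliss excess as the observed combination effect less EA + EB − EA·EB, with EA and EB the single-agent effects.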

[2] = tested on: A375 (Melanoma); experiment: combination Emax (second highest fraction inhibited in the dose matrix, 72 h); higher = more inhibition; extreme values may be limits of the assay
Summary of the method: as §1

[3] = tested on: C2BBe1 (Colorectal Carcinoma); experiment: as above
Summary of the method: as §1

[4] = tested on: C32 (Melanoma); experiment: as above
Summary of the method: as §1

[5] = tested on: COR-L105 (Lung Adenocarcinoma); experiment: as above
Summary of the method: as §1

[6] = tested on: Daudi (Burkitt's Lymphoma); experiment: as above
Summary of the method: as §1

[7] = tested on: HT-1197 (Bladder Carcinoma); experiment: as above
Summary of the method: as §1

[8] = tested on: HT-144 (Melanoma); experiment: as above
Summary of the method: as §1

[9] = tested on: JJN-3 (Plasma Cell Myeloma); experiment: as above
Summary of the method: as §1

[10] = tested on: L-363 (Plasma Cell Myeloma); experiment: as above
Summary of the method: as §1

[11] = tested on: MDA-MB-175-VII (Breast Carcinoma); experiment: as above
Summary of the method: as §1

[12] = tested on: NCI-H1435 (Non-Small Cell Lung Carcinoma); experiment: as above
Summary of the method: as §1

[13] = tested on: NCI-H2009 (Lung Adenocarcinoma); experiment: as above
Summary of the method: as §1

[14] = tested on: RVH-421 (Melanoma); experiment: as above
Summary of the method: as §1

[15] = tested on: SK-MEL-24 (Melanoma); experiment: as above
Summary of the method: as §1

[16] = tested on: SK-N-DZ (Neuroblastoma); experiment: as above
Summary of the method: as §1

[17] = tested on: SNU-1 (Gastric Carcinoma); experiment: as above
Summary of the method: as §1

[18] = tested on: TOV-21G (Ovarian Carcinoma); experiment: as above
Summary of the method: as §1
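For Bliss excess, mean over the matrix in this document: after 72 h of two-drug dosing.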

Structure (SMILES) | Bliss excess [1] | combination Emax [2] | combination Emax [3] | combination Emax [4] | combination Emax [5] | combination Emax [6] | combination Emax [7] | combination Emax [8] | combination Emax [9] | combination Emax [10] | combination Emax [11] | combination Emax [12] | combination Emax [13] | combination Emax [14] | combination Emax [15] | combination Emax [16] | combination Emax [17] | combination Emax [18]
CC1(C)CCC(CN2CCN(c3ccc(C(=O)NS(=O)(=O)c4ccc(NCC5CCOCC5)c([N+](=O)[O-])c4)c(Oc4cnc5[nH]ccc5c4)c3)CC2)=C(c2ccc(Cl)cc2)C1 [Venetoclax] + C1CN(CCC1(C(=O)N[C@@H](CCO)C2=CC=C(C=C2)Cl)N)C3=NC=NC4=C3C=CN4 [Capivasertib] (first compound max 1 µM, 7x7, partner max 3 µM) | -0.0471 | 0.175 | 0.362 | 0.356 | 0.23 | 0.205 | 0.326 | 0.383 | 0.305 | 0.867 | 0.393 | 0.154 | 0.128 | 0.351 | 0.361 | 0.307 | 0.256 | 0.646
Cc1c2c(nn1C)CSCc1cc(n(C)n1)CSc1cc(c3ccccc3c1)OCCCc1c(C(=O)O)n(C)c3c-2c(Cl)ccc13 [AZD5991] + C=CCn1c(=O)c2cnc(Nc3ccc(N4CCN(C)CC4)cc3)nc2n1-c1cccc(C(C)(C)O)n1 [AZD1775] (first compound max 1 µM, partner max 1 µM) | 0.0088 | 0.818 | 0.341 | 0.568 | 0.454 | 0.706 | 0.593 | 0.969 | 1 | 1 | 0.216 | 0.276 | 0.75 | 0.248 | 0.478 | 0.948 | 0.6 | 0.732
CC(=O)Nc1cccc(-n2c(=O)n(C3CC3)c(=O)c3c(Nc4ccc(I)cc4F)n(C)c(=O)c(C)c32)c1 [Trametinib] + Cc1nc(-c2cn3c(n2)-c2ccc(-c4cnn(C(C)(C)C(N)=O)c4)cc2OCC3)n(C(C)C)n1 [Taselisib] (first compound max 1 µM, 7x7, partner max 10 µM) | 0.0732 | 0.935 | 0.916 | 1 | 0.9 | 0.523 | 0.76 | 1 | 0.532 | 0.635 | 1 | 0.896 | 0.955 | 0.638 | 0.997 | 0.521 | 0.769 | 0.817
Cc1c2c(nn1C)CSCc1cc(n(C)n1)CSc1cc(c3ccccc3c1)OCCCc1c(C(=O)O)n(C)c3c-2c(Cl)ccc13 [AZD5991] + CN(C)CCCOc1ccc(-c2ccc3ncc4c(c3c2)n(C2CCOCC2)c(=O)n4C)cn1 [AZD0156] (first compound max 1 µM, 7x7, partner max 1 µM) | 0.0113 | 0.457 | 0.288 | 0.24 | 0.258 | 0.288 | 0.217 | 0.87 | 1 | 1 | 0.209 | 0.233 | 0.182 | 0.284 | 0.232 | 0.265 | 0.584 | 0.161
CN(CCO)CC[C@H](CSc1ccccc1)Nc1ccc(S(=O)(=O)NC(=O)c2ccc(N3CCC([C@@H](O)c4ccccc4-c4ccc(Cl)cc4)CC3)cc2)cc1S(=O)(=O)C(F)(F)F [AZD4320] + Cn1cnc2c(F)c(Nc3ccc(Br)cc3Cl)c(C(=O)NOCCO)cc21 [Selumetinib] (first compound max 1 µM, 7x7, partner max 3 µM) | 0.106 | 0.749 | 0.587 | 0.975 | 0.543 | 0.65 | 0.41 | 0.834 | 0.731 | 0.212 | 0.598 | 0.819 | 0.606 | 0.643 | 0.761 | 0.827 | 0.952 | 0.503
COc1cccc(OCCCN)c1-c1cc(Nc2cnc(C#N)cn2)n[nH]1 [Prexasertib] + Cc1cc2ncnn2cc1Nc1ncc2c(n1)n(C1CCOCC1)c(=O)n2C [AZD7648] (first compound max 1 µM, 7x7, partner max 10 µM) | -0.0417 | 0.877 | 0.625 | 0.753 | 0.444 | 0.947 | 0.517 | 0.72 | 0.966 | 0.985 | 0.367 | 0.336 | 0.45 | 0.344 | 0.61 | 1 | 0.84 | 0.617
COc1cccc(OCCCN)c1-c1cc(Nc2cnc(C#N)cn2)n[nH]1 [Prexasertib] + C=CCn1c(=O)c2cnc(Nc3ccc(N4CCN(C)CC4)cc3)nc2n1-c1cccc(C(C)(C)O)n1 [AZD1775] (first compound max 1 µM, partner max 1 µM) | -0.0524 | 0.952 | 0.613 | 0.721 | 0.444 | 0.968 | 0.646 | 0.838 | 0.985 | 1 | 0.424 | 0.403 | 0.849 | 0.341 | 0.703 | 1 | 0.916 | 0.618
CN(CCO)CC[C@H](CSc1ccccc1)Nc1ccc(S(=O)(=O)NC(=O)c2ccc(N3CCC([C@@H](O)c4ccccc4-c4ccc(Cl)cc4)CC3)cc2)cc1S(=O)(=O)C(F)(F)F [AZD4320] + C1CN(CCC1(C(=O)N[C@@H](CCO)C2=CC=C(C=C2)Cl)N)C3=NC=NC4=C3C=CN4 [Capivasertib] (first compound max 1 µM, 7x7, partner max 3 µM) | -0.0454 | 0.0874 | 0.209 | 0.257 | 0.411 | 0.16 | 0.321 | 0.387 | 0.383 | 0.376 | 0.799 | 0.876 | 0.0559 | 0.486 | 0.452 | 0.705 | 0.412 | 0.688
Cc1c2c(nn1C)CSCc1cc(n(C)n1)CSc1cc(c3ccccc3c1)OCCCc1c(C(=O)O)n(C)c3c-2c(Cl)ccc13 [AZD5991] + CCN(CCO)CCCOc1ccc2c(Nc3cc(CC(=O)Nc4cccc(F)c4)[nH]n3)ncnc2c1 [AZD2811] (first compound max 1 µM, 7x7, partner max 1 µM) | -0.0055 | 0.746 | 0.277 | 0.445 | 0.262 | 0.806 | 0.2 | 0.927 | 1 | 1 | 0.288 | 0.313 | 0.754 | 0.214 | 0.362 | 0.293 | 0.551 | 0.4
Cc1c2c(nn1C)CSCc1cc(n(C)n1)CSc1cc(c3ccccc3c1)OCCCc1c(C(=O)O)n(C)c3c-2c(Cl)ccc13 [AZD5991] + C[C@@H](Nc1cc(F)cc(F)c1)c1cc(C(=O)N(C)C)cc2c(=O)cc(N3CCOCC3)oc12 [AZD8186] (first compound max 1 µM, 7x7, partner max 3 µM) | -0.0204 | 0.289 | 0.335 | 0.251 | 0.238 | 0.427 | 0.252 | 0.901 | 1 | 1 | 0.313 | 0.276 | 0.165 | 0.517 | 0.388 | 0.232 | 0.652 | 0.253
C=CCn1c(=O)c2cnc(Nc3ccc(N4CCN(C)CC4)cc3)nc2n1-c1cccc(C(C)(C)O)n1 [AZD1775] + C[C@@H]1COCCN1C2=NC(=NC(=C2)C3(CC3)[S@](=N)(=O)C)C4=C5C=CNC5=NC=C4 [AZD6738] (first compound max 1 µM, partner max 10 µM) | -0.0495 | 0.766 | 0.486 | 0.73 | 0.595 | 0.901 | 0.592 | 0.777 | 0.832 | 0.977 | 0.405 | 0.398 | 0.799 | 0.213 | 0.725 | 1 | 0.817 | 0.71
COc1cccc(OCCCN)c1-c1cc(Nc2cnc(C#N)cn2)n[nH]1 [Prexasertib] + C[C@@H]1COCCN1C2=NC(=NC(=C2)C3(CC3)[S@](=N)(=O)C)C4=C5C=CNC5=NC=C4 [AZD6738] (first compound max 1 µM, 7x7, partner max 10 µM) | -0.0225 | 0.853 | 0.556 | 0.735 | 0.473 | 0.939 | 0.603 | 0.853 | 0.971 | 1 | 0.398 | 0.283 | 0.522 | 0.244 | 0.646 | 1 | 0.888 | 0.591
CC1(C)CCC(CN2CCN(c3ccc(C(=O)NS(=O)(=O)c4ccc(NCC5CCOCC5)c([N+](=O)[O-])c4)c(Oc4cnc5[nH]ccc5c4)c3)CC2)=C(c2ccc(Cl)cc2)C1 [Venetoclax] + C[C@@H]1COCCN1C2=NC(=NC(=C2)C3(CC3)[S@](=N)(=O)C)C4=C5C=CNC5=NC=C4 [AZD6738] (first compound max 1 µM, 7x7, partner max 10 µM) | -0.0286 | 0.674 | 0.461 | 0.666 | 0.421 | 0.725 | 0.441 | 0.718 | 0.791 | 0.897 | 0.251 | 0.177 | 0.415 | 0.26 | 0.454 | 0.946 | 0.798 | 0.785
COc1cccc(OCCCN)c1-c1cc(Nc2cnc(C#N)cn2)n[nH]1 [Prexasertib] + CN(C)CCCOc1ccc(-c2ccc3ncc4c(c3c2)n(C2CCOCC2)c(=O)n4C)cn1 [AZD0156] (first compound max 1 µM, 7x7, partner max 1 µM) | -0.0325 | 0.851 | 0.582 | 0.774 | 0.435 | 0.965 | 0.571 | 0.744 | 0.976 | 0.992 | 0.327 | 0.365 | 0.462 | 0.314 | 0.624 | 1 | 0.842 | 0.621
